Measurements from patent US20160159861A1, “APJ Receptor Compounds” (priority 2013, published 2016).
Like-named read-outs stand apart in the source and are kept apart here. Peptide text beside a SMILES is read from it.

Columns and labels:
[1] = tested on: rat peritoneal cells; test: Ex vivo histamine release assay in rat peritoneal cells (vs. Compound 48/80); assay type: cell-based
Source text: More desirable pharmacological tolerability can include a decrease in an undesirable side effect (e.g., histamine release, an indicator of mast cell degranulation) without a significant loss in activity of the compound.
Screening of the variant G protein receptor compounds against a control compound for histamine release can be done following standard assays. The standard assay can include comparison to a control compound known to elicit a histamine response (e.g., 48/80 having CAS No. 94724-12-6). Such an assay using rat peritoneal cells is described herein for the APJ compounds.
Test compounds were assayed in the ex vivo histamine release assay using a 3-point dose response. Concentrations of total histamine contained in the cells is used to correct for variability in the numbers of mast cells in the lavage per well.
Resident peritoneal cells were harvested from naïve Sprague Dawley rats (male 200-300 gr, Charles River). Rats were euthanized by CO2 asphyxiation and a skin incision was made along the middle-line of the abdomen. Thirty milliliters of HBSS (HyClone, cat#SH 30268.01) containing 20 mM HEPES and 0.2% BSA (heretofore Assay Buffer) were injected intraperitoneally using a 30 mL syringe with the attached 18 gauge needle. The abdomen was gently lavaged for 1-2 min and 7-10 milliliters of the peritoneal lavage were carefully aspirated. Cell count in the peritoneal lavage was determined using Cellometer Auto T4 (Nexcelom Bioscience). The peritoneal cell count was adjusted to […] cells/mL in Assay Buffer. Rat peritoneal cells were kept at room temperature before and during the assay.
For the 10-point assay, 3-fold serial dilutions were prepared for each test compound in 100% DMSO in 96-well plates (Greiner Bio One, Ref#651261)—from 100 μM down to […]. For the 3-point assay, 10-fold serial dilutions were prepared in 100% DMSO at 100 μM, 10 μM and 1 μM concentrations. From this plate, 5 μL of compound were transferred to a new plate containing 45 μL Assay Buffer to generate a compound plate with 10× final concentrations in 10% DMSO with Assay Buffer. In the final plates, column 11 contained 1% DMSO for the low-histamine-releasing control.
Suspensions of the rat peritoneal cells (90 μL of 2.75×10^5 cells/mL; →25,000 cells per well) were introduced into each well of a new 96-well microtiter plate (Greiner Bio One, Ref#651261) and 10 μL aliquots of the serially diluted compounds were transferred to the cells in each well. The microtiter plate was incubated for 30 min at room temperature. Following incubation cells were spun down (500 rpm, 7 min) and supernatants were collected for further analysis. Supernatants were diluted 6 times with the assay buffer (15 μL to 75 μL, for 90 μL total) and released histamine content was determined using HTRF® Histamine assay kit (CisBio, cat#62HTMPEB). To measure the total histamine in each well, cells were lysed by addition of 15 μL 5% TritonX-100 to each well followed by incubation for 15 minutes. The plates were then spun at 3000 rpm for 5 minutes, and 10 μL of supernatant were diluted 9-fold in assay buffer (10 μL to 80 μL for 90 μL total) to make the “total” histamine plate. Histamine content was measured as described above for the “released” histamine values.
The standard positive control was Compound 48/80 (Enzo Life Sciences), a oligomeric polymer mixture produced by the condensation of N-methyl-p-methoxyphenethylamine with formaldehyde. The trimer is the most abundant in the mixture Compound 48/80 is used to promote mast cell degranulation and activates G proteins by a mechanism analogous to that of mastoparan. […] See references: T. Higashijima et al., J. Biol., Chem., 265 14176 (1990); M. Mousli et al., FEBS Lett., 259 260 (1990); K. Gietzen et al., Biochim. Biophys. Acta, 736 109 (1983); K. Gietzen, Biochem. J., 1983 216 611 and C. Bronner et al., Biochim. Biophys. Acta, 920 301(1987).

[2] = biological target: T1, human APJ receptor (hAPJ) (Homo sapiens, UniProt P35414); test: HTRF cAMP assay: inhibition of NKH477-stimulated cAMP in HEK cells stably expressing hAPJ; assay type: cell-based; conditions: for % IA (cAMP inhibition, hAPJ HEK): intrinsic activity; for Ranking: composite class of EC50 (hAPJ), % IA and % histamine or formal (+) charge; for Emax: HEK293, read-out: % IA, bound stated; for inhibition of NKH477-stimulated increase in cAMP, dose dependent: concentration response curves, FIGS. 1 and 2, HEK cells stably expressing APJ
T1 construct: expressed in transfected cells
T1 sequence (P35414 1-380): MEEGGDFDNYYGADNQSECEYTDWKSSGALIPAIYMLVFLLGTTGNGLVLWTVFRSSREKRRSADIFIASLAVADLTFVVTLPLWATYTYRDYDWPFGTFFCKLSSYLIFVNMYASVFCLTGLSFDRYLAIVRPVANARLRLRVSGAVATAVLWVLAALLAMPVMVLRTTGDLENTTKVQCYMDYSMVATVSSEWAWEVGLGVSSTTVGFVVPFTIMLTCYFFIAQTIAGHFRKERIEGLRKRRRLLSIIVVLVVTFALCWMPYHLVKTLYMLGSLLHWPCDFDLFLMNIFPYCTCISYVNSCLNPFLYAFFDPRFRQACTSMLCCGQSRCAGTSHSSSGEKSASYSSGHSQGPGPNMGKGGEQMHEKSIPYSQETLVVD
Source text: HTRF cAMP Assay and IP-One Assay (Cisbio)
HTRF (homogeneous time resolved fluorescence) is a technology developed by Cisbio Bioassays based on TR-FRET (time-resolved fluorescence resonance energy transfer). Cisbio Bioassays has developed a wide selection of HTRF-based assays compatible with whole cells, thereby enabling functional assays to run under more physiological conditions. The IP-One assays are competitive immunoassays using cryptate-labeled anti-IP1 monoclonal antibody and d2-labeled IP1. IP1 is a relatively stable downstream metabolite of IP3, and accumulates in cells following Gq receptor activation.
cAMP kits based on a competitive immunoassay using cryptate-labeled anti-cAMP antibody and d2-labeled cAMP were used to assay the effects of APJ compounds of the present invention. […] Cells are treated with 1 nG/mL doxycycline and seeded in all white 96 well plates @40 k/well overnight.

[3] = HTRF cAMP Assay, per data of Table 6
[4] = HTRF cAMP Assay, per data of Table 6, read-out: EC50 (hAPJ), inhibition of cAMP production, bound stated
[5] = Table 6, hAPJ HEK cells, NKH477-stimulated cAMP, read-out: EC50 (cAMP inhibition, hAPJ HEK)

| % IA (cAMP inhibition, hAPJ HEK) ([2]; Table 6, hAPJ HEK cells) [%] | Histamine (% vs. 48/80) [1] [%] | Emax [2, 3] [%] | EC50 [2, 4] [nM] | EC50 [2, 5] [nM] | inhibition of NKH477-stimulated increase in cAMP, dose dependent [2] | Compound | Histamine (% vs. 48/80) ([1]; histamine release from rat peritoneal cells relative to Compound 48/80) [%] | EC50 ([2]; EC50 (cAMP inhibition, hAPJ HEK), Table 6, hAPJ HEK cells, NKH477-stimulated cAMP) [nM] | Ranking [2] |
| --- | --- | --- | --- | --- | --- | --- | --- | --- | --- |
| 111 | 1 | ≥ 80 | ≤ 25 | 24 | inhibited | CCCCCCCCCCCCCCCC(=O)N[C@@H](CC(=O)O)C(=O)N[C@H](C(=O)N[C@@H](Cc1ccccc1)C(=O)N[C@@H](CCC(N)=O)C(=O)N[C@@H](CO)C(=O)N[C@@H](CCC(=O)O)C(=O)N[C@H](CCCCN)C(=O)N[C@@H](CCCNC(=N)N)C(=O)N[C@@H](CCCNC(=N)N)C(=O)N[C@@H](CO)C(=O)N[C@@H](C)C(=O)N[C@@H](CC(=O)O)C(=O)N[C@@H](CCC(N)=O)C(=O)N[C@@H](Cc1ccccc1)C(=O)N[C@H](C(N)=O)[C@@H](C)CC)C(C)C [Compound 17] (HELM PEPTIDE1{[CCCCCCCCCCCCCCCC(=O)[*:2]].D.V.F.Q.S.E.[dK].R.R.S.A.D.Q.F.I.[am]}$$$$V2.0) |  |  | ***** (EC50≦25 nM (hAPJ), % IA≧80% and either % histamine≦35% or formal (+) charge≦1) |
| 80 | 47 | ≥ 80 | ≤ 25 | 20 | inhibited | CCCCCCCCCCCCCCCC(=O)N1CCC[C@@H]1C(=O)N[C@H](C(=O)N[C@H](C(=O)N[C@@H](Cc1ccccc1)C(=O)N[C@@H](CCCNC(=N)N)C(=O)N[C@@H](CO)C(=O)N1CCC[C@@H]1C(=O)N[C@@H](CO)C(=O)N[C@@H](CCC(=O)O)C(=O)N[C@H](CCCCN)C(=O)N[C@@H](CCCNC(=N)N)C(=O)N[C@@H](CCCNC(=N)N)C(=O)N[C@@H](CO)C(=O)N[C@@H](C)C(=O)N[C@@H](CC(=O)O)C(=O)N[C@H](C(=O)N[C@@H](Cc1ccccc1)C(N)=O)[C@@H](C)CC)C(C)C)[C@@H](C)O [Compound 29, pTVFRSpSEkRRSADIF] (HELM PEPTIDE1{[CCCCCCCCCCCCCCCC(=O)[*:2]].[dP].T.V.F.R.S.[dP].S.E.[dK].R.R.S.A.D.I.F.[am]}$$$$V2.0) |  |  | **** (EC50≦25 nM (hAPJ), % IA≧80% and either % histamine>35% or formal (+) charge>1) |
| 86 | 34 | ≥ 80 | ≤ 25 | 16 | inhibited | CCCCCCCCCCCCCCCC(=O)N1CCC[C@H]1C(=O)N[C@H](CCCCN)C(=O)N[C@@H](CCCNC(=N)N)C(=O)N[C@@H](CCCNC(=N)N)C(=O)N[C@@H](CO)C(=O)N[C@@H](C)C(=O)N[C@@H](CC(=O)O)C(=O)N[C@H](C(=O)N[C@@H](Cc1ccccc1)C(=O)N[C@H](C(=O)N1CCC[C@H]1C(N)=O)[C@@H](C)CC)[C@@H](C)CC [Compound 30] (HELM PEPTIDE1{[CCCCCCCCCCCCCCCC(=O)[*:2]].P.[dK].R.R.S.A.D.I.F.I.P.[am]}$$$$V2.0) |  |  | ***** (EC50≦25 nM (hAPJ), % IA≧80% and either % histamine≦35% or formal (+) charge≦1) |
| 48 | -1 |  |  | 9 |  | CCCCCCCCCCCCCCCC(=O)N1CCC[C@H]1C(=O)N[C@@H](CCC(=O)O)C(=O)N[C@H](CCCCN)C(=O)N[C@@H](CCCNC(=N)N)C(=O)N[C@@H](CCCNC(=N)N)C(=O)N[C@@H](CO)C(=O)N[C@@H](C)C(=O)N[C@@H](CC(=O)O)C(=O)N[C@H](C(=O)N[C@@H](Cc1ccccc1)C(=O)N1CCC[C@H]1C(N)=O)[C@@H](C)CC [Compound 4] (HELM PEPTIDE1{[CCCCCCCCCCCCCCCC(=O)[*:2]].P.E.[dK].R.R.S.A.D.I.F.P.[am]}$$$$V2.0) |  |  | * (EC50≦50 nM (hAPJ), % IA<50%) |

| Compound | % IA (cAMP inhibition, hAPJ HEK) ([2]; Table 6, hAPJ HEK cells) [%] | Histamine (% vs. 48/80) [1] [%] | Emax [2, 3] [%] | EC50 [2, 4] [nM] | EC50 [2, 5] [nM] | inhibition of NKH477-stimulated increase in cAMP, dose dependent [2] | Histamine (% vs. 48/80) ([1]; histamine release from rat peritoneal cells relative to Compound 48/80) [%] | EC50 ([2]; EC50 (cAMP inhibition, hAPJ HEK), Table 6, hAPJ HEK cells, NKH477-stimulated cAMP) [nM] | Ranking [2] |
| --- | --- | --- | --- | --- | --- | --- | --- | --- | --- |
| CCCCCCCCCCCCCCCC(=O)N[C@H](C(=O)N[C@H](C(=O)N1CCC[C@H]1C(=O)N[C@@H](Cc1ccccc1)C(=O)N[C@@H](CCCNC(=N)N)C(=O)N[C@@H](CO)C(=O)N[C@@H](CO)C(=O)N[C@@H](CCC(=O)O)C(=O)N1CCC[C@H]1C(=O)N[C@H](CCCCN)C(=O)N[C@@H](CCCNC(=N)N)C(=O)N[C@@H](CCCNC(=N)N)C(=O)N[C@@H](CO)C(=O)N[C@@H](C)C(=O)N[C@@H](CC(=O)O)C(=O)N[C@H](C(=O)N[C@@H](Cc1ccccc1)C(=O)N[C@H](C(N)=O)[C@@H](C)CC)[C@@H](C)CC)C(C)C)[C@@H](C)O [Compound 1] (HELM PEPTIDE1{[CCCCCCCCCCCCCCCC(=O)[*:2]].T.V.P.F.R.S.S.E.P.[dK].R.R.S.A.D.I.F.I.[am]}$$$$V2.0) | 57 |  |  |  |  |  | 53 | 4 | ** (EC50 25-50 nM (hAPJ), % IA 50-79% and either % histamine>35% or formal (+) charge>1) |
| CCCCCCCCCCCCCCCC(=O)N[C@H](C(=O)N[C@H](C(=O)N[C@@H](Cc1ccccc1)C(=O)N[C@@H](CCCNC(=N)N)C(=O)N[C@@H](CO)C(=O)N[C@@H](CO)C(=O)N[C@@H](CCC(=O)O)C(=O)N[C@H](CCCCN)C(=O)N[C@@H](CCCNC(=N)N)C(=O)N[C@@H](CCCNC(=N)N)C(=O)N[C@@H](CO)C(=O)N[C@@H](C)C(=O)N[C@@H](CC(=O)O)C(=O)N[C@@H](Cc1ccc(-c2ccccc2)cc1)C(=O)N[C@@H](Cc1ccccc1)C(=O)N[C@H](C(N)=O)[C@@H](C)CC)C(C)C)[C@@H](C)O [Compound 11, TVFRSSEkRRSAD(Bip)FI] (HELM PEPTIDE1{[CCCCCCCCCCCCCCCC(=O)[*:2]].T.V.F.R.S.S.E.[dK].R.R.S.A.D.[O=C([C@H](Cc1ccc(-c2ccccc2)cc1)N[*:1])[*:2]].F.I.[am]}$$$$V2.0) | 76 | 8 |  |  | 34 |  |  |  | ** (EC50 25-50 nM (hAPJ), % IA 50-79% and either % histamine>35% or formal (+) charge>1) |
